{
  "source": "patent US8575135B2",
  "about": "(Gilead Sciences, Inc., priority 2011, dated 2013)",
  "assay_in_all_cases": "microbe, parasite or virus in culture",
  "settings_in_all_cases": "Hepatitis C virus",
  "key": {"[1]": {"tested_on": "stable HCV 1a RLuc replicon cells (genotype 1a H77 replicon)", "format": "cell-based", "procedure": "(§1) Evaluation of Cell-Based Anti-HCV Activity:\n(§2) Antiviral potency (EC50) was determined using a Renilla luciferase (RLuc)-based HCV replicon reporter assay. […] To perform the assay for genotype 2a (with M31 present in NS5A) or 2b, NS5A chimeric genotype 2a JFH-1 replicons that encodes a RLuc-Neo reporter and either genotype 2a J6 strain NS5A gene or genotype 2b MD2b-1 strain NS5A gene (both with M31 present) respectively, were either transiently transfected (t) into Huh-Lunet cells or were established as stably replicating replicon cells (s) is provided. Either cells were dispensed into 384-well plates for EC50 assays. To perform the assay for genotype 3 and 4, NS5A chimeric genotype 1b Con1 replicons that encodes a Pi-RLuc reporter and either genotype 3a S52 strain NS5A gene or genotype 4a ED43 strain NS5A gene respectively, were transiently transfected (t) into Huh-Lunet cells, which were subsequently dispensed into 384-well plates. Compounds were dissolved in DMSO at a concentration of 10 mM and diluted in DMSO either manually or using an automated pipeting instrument. Serially 3-fold diluted compounds were either manually mixed with cell culture media and added to the seeded cells or directly added to the cells using an automated instrument. […] 72 hours later, cells were lysed and Renilla luciferase activity quantified as recommended by the manufacturer (Promega-Madison, Wis.). Non-linear regression was performed to calculate EC50 values."}, "[2]": {"tested_on": "stable HCV 2a JFH-1 Rluc replicon cells (L31 present in NS5A)", "format": "cell-based"}, "[3]": {"tested_on": "NS5A chimeric genotype 1b Con1 replicon with genotype 3a S52 strain NS5A gene", "format": "cell-based, HCV", "procedure": "as §1, §2"}, "[4]": {"tested_on": "NS5A chimeric genotype 2a JFH-1 replicon with genotype 2a J6 strain NS5A gene (M31 present)", "format": "cell-based, HCV", "procedure": "as §1, §2"}, "[5]": {"tested_on": "NS5A chimeric genotype 2a JFH-1 replicon with genotype 2b MD2b-1 strain NS5A gene (M31 present)", "format": "cell-based, HCV", "procedure": "as §1, §2"}, "[6]": {"tested_on": "NS5A chimeric genotype 1b Con1 replicon with genotype 4a ED43 strain NS5A gene", "format": "cell-based, HCV"}},
  "note": "Read-outs that look alike come from different tables or passages of the source.",
  "data": [
    {"smiles": "COC[C@H]1C[C@@H](c2nc3ccc4cc5c(cc4c3[nH]2)OCc2cc(-c3ccc4nc([C@@H]6CCCN6C(=O)[C@@H](NC(=O)OC)C(C)C)[nH]c4c3)ccc2-5)N(C(=O)[C@@H](NC(=O)OC)C(C)C)C1", "values": [
      {"measurement": "EC50", "setting": "[1]; read-out: 1a", "result": "< 1", "unit": "nM"},
      {"measurement": "EC50", "setting": "[1]; read-out: 1a (nM)", "result": 0.003, "unit": "nM"},
      {"measurement": "EC50", "setting": "[2]; read-out: 2a JFH", "result": "< 1", "unit": "nM"},
      {"measurement": "EC50", "setting": "[2]; read-out: 2a JFH (nM)", "result": 0.021, "unit": "nM"},
      {"measurement": "EC50", "setting": "[3]; read-out: 3a", "result": "1 to 4.99", "unit": "nM"},
      {"measurement": "EC50", "setting": "[3]; read-out: 3a (nM)", "result": 1.09, "unit": "nM"},
      {"measurement": "EC50", "setting": "[4]; read-out: 2a J6", "result": "> 5", "unit": "nM"},
      {"measurement": "EC50", "setting": "[4]; read-out: 2a J6 (s) (nM)", "result": 44.4, "unit": "nM"},
      {"measurement": "EC50", "setting": "[5]; read-out: 2b", "result": "> 5", "unit": "nM"},
      {"measurement": "EC50", "setting": "[5]; read-out: 2b (s) (nM)", "result": 44.4, "unit": "nM"},
      {"measurement": "EC50", "setting": "[6]; read-out: 4a", "result": "< 1", "unit": "nM"},
      {"measurement": "EC50", "setting": "[6]; read-out: 4a (s) (nM)", "result": 0.025, "unit": "nM"},
      {"measurement": "EC50", "setting": "[6]; read-out: 4a (t) (nM)", "result": 0.015, "unit": "nM"}
    ]},
    {"smiles": "COC[C@@H]1C[C@@H](c2nc3c([nH]2)-c2cc4c(cc2CC3)-c2ccc(-c3cnc([C@@H]5CCCN5C(=O)[C@@H](NC(=O)OC)C(C)C)[nH]3)cc2CO4)N(C(=O)[C@@H](NC(=O)OC)C(C)C)C1", "note": "[Compound 493]", "values": [
      {"measurement": "EC50", "setting": "[1]; read-out: 1a", "result": "< 1", "unit": "nM"},
      {"measurement": "EC50", "setting": "[1]; read-out: 1a (nM)", "result": 0.036, "unit": "nM"},
      {"measurement": "EC50", "setting": "[2]; read-out: 2a JFH", "result": "< 1", "unit": "nM"},
      {"measurement": "EC50", "setting": "[2]; read-out: 2a JFH (nM)", "result": 0.008, "unit": "nM"},
      {"measurement": "EC50", "setting": "[3]; read-out: 3a", "result": "< 1", "unit": "nM"},
      {"measurement": "EC50", "setting": "[3]; read-out: 3a (nM)", "result": 0.05, "unit": "nM"},
      {"measurement": "EC50", "setting": "[4]; read-out: 2a J6", "result": "> 5", "unit": "nM"},
      {"measurement": "EC50", "setting": "[4]; read-out: 2a J6 (s) (nM)", "result": 5.04, "unit": "nM"},
      {"measurement": "EC50", "setting": "[5]; read-out: 2b", "result": "< 1", "unit": "nM"},
      {"measurement": "EC50", "setting": "[5]; read-out: 2b (s) (nM)", "result": 0.65, "unit": "nM"},
      {"measurement": "EC50", "setting": "[6]; read-out: 4a", "result": "< 1", "unit": "nM"},
      {"measurement": "EC50", "setting": "[6]; read-out: 4a (s) (nM)", "result": 0.018, "unit": "nM"},
      {"measurement": "EC50", "setting": "[6]; read-out: 4a (t) (nM)", "result": 0.013, "unit": "nM"}
    ]},
    {"smiles": "CCC(=O)N[C@@H](C(=O)N1CCC[C@H]1c1ncc(-c2ccc3c(c2)COc2cc4c(ccc5nc([C@@H]6CCCN6C(=O)[C@@H](NC(=O)OC)C(C)C)[nH]c54)cc2-3)[nH]1)c1ccccc1", "note": "[Compound 499]", "values": [
      {"measurement": "EC50", "setting": "[1]; read-out: 1a", "result": "< 1", "unit": "nM"},
      {"measurement": "EC50", "setting": "[1]; read-out: 1a (nM)", "result": 0.057, "unit": "nM"},
      {"measurement": "EC50", "setting": "[2]; read-out: 2a JFH", "result": "< 1", "unit": "nM"},
      {"measurement": "EC50", "setting": "[2]; read-out: 2a JFH (nM)", "result": 0.008, "unit": "nM"},
      {"measurement": "EC50", "setting": "[3]; read-out: 3a", "result": "< 1", "unit": "nM"},
      {"measurement": "EC50", "setting": "[3]; read-out: 3a (nM)", "result": 0.01, "unit": "nM"},
      {"measurement": "EC50", "setting": "[4]; read-out: 2a J6", "result": "< 1", "unit": "nM"},
      {"measurement": "EC50", "setting": "[4]; read-out: 2a J6 (s) (nM)", "result": 0.206, "unit": "nM"},
      {"measurement": "EC50", "setting": "[5]; read-out: 2b", "result": "< 1", "unit": "nM"},
      {"measurement": "EC50", "setting": "[5]; read-out: 2b (s) (nM)", "result": 0.04, "unit": "nM"},
      {"measurement": "EC50", "setting": "[6]; read-out: 4a", "result": "< 1", "unit": "nM"},
      {"measurement": "EC50", "setting": "[6]; read-out: 4a (s) (nM)", "result": 0.005, "unit": "nM"},
      {"measurement": "EC50", "setting": "[6]; read-out: 4a (t) (nM)", "result": 0.021, "unit": "nM"}
    ]},
    {"smiles": "COC(=O)N[C@H](C(=O)N1CCC[C@H]1c1ncc(-c2ccc3c(c2)COc2cc4c(cc2-3)CCc2nc([C@@H]3CCCN3C(=O)[C@H](NC(=O)C3CC3)c3ccccc3)[nH]c2-4)[nH]1)C(C)C", "note": "[Compound 503]", "values": [
      {"measurement": "EC50", "setting": "[1]; read-out: 1a", "result": "< 1", "unit": "nM"},
      {"measurement": "EC50", "setting": "[1]; read-out: 1a (nM)", "result": 0.062, "unit": "nM"},
      {"measurement": "EC50", "setting": "[2]; read-out: 2a JFH", "result": "< 1", "unit": "nM"},
      {"measurement": "EC50", "setting": "[2]; read-out: 2a JFH (nM)", "result": 0.012, "unit": "nM"},
      {"measurement": "EC50", "setting": "[3]; read-out: 3a", "result": "< 1", "unit": "nM"},
      {"measurement": "EC50", "setting": "[3]; read-out: 3a (nM)", "result": 0.016, "unit": "nM"},
      {"measurement": "EC50", "setting": "[4]; read-out: 2a J6", "result": "< 1", "unit": "nM"},
      {"measurement": "EC50", "setting": "[4]; read-out: 2a J6 (s) (nM)", "result": 0.155, "unit": "nM"},
      {"measurement": "EC50", "setting": "[5]; read-out: 2b", "result": "< 1", "unit": "nM"},
      {"measurement": "EC50", "setting": "[5]; read-out: 2b (s) (nM)", "result": 0.037, "unit": "nM"},
      {"measurement": "EC50", "setting": "[6]; read-out: 4a", "result": "< 1", "unit": "nM"},
      {"measurement": "EC50", "setting": "[6]; read-out: 4a (s) (nM)", "result": 0.025, "unit": "nM"},
      {"measurement": "EC50", "setting": "[6]; read-out: 4a (t) (nM)", "result": 0.028, "unit": "nM"}
    ]},
    {"smiles": "COC[C@H]1C[C@@H](c2nc3ccc4cc5c(cc4c3[nH]2)OCc2cc(-c3cnc([C@@H]4CCCN4C(=O)[C@H](NC(=O)C4CC4)c4ccccc4)[nH]3)ccc2-5)N(C(=O)[C@@H](NC(=O)OC)C(C)C)C1", "note": "[Compound 510]", "values": [
      {"measurement": "EC50", "setting": "[1]; read-out: 1a", "result": "< 1", "unit": "nM"},
      {"measurement": "EC50", "setting": "[1]; read-out: 1a (nM)", "result": 0.021, "unit": "nM"},
      {"measurement": "EC50", "setting": "[2]; read-out: 2a JFH", "result": "< 1", "unit": "nM"},
      {"measurement": "EC50", "setting": "[2]; read-out: 2a JFH (nM)", "result": 0.009, "unit": "nM"},
      {"measurement": "EC50", "setting": "[3]; read-out: 3a", "result": "< 1", "unit": "nM"},
      {"measurement": "EC50", "setting": "[3]; read-out: 3a (nM)", "result": 0.008, "unit": "nM"},
      {"measurement": "EC50", "setting": "[4]; read-out: 2a J6", "result": "< 1", "unit": "nM"},
      {"measurement": "EC50", "setting": "[4]; read-out: 2a J6 (s) (nM)", "result": 0.018, "unit": "nM"},
      {"measurement": "EC50", "setting": "[4]; read-out: 2a Jb (t) (nM)", "result": 0.007, "unit": "nM"},
      {"measurement": "EC50", "setting": "[5]; read-out: 2b", "result": "< 1", "unit": "nM"},
      {"measurement": "EC50", "setting": "[5]; read-out: 2b (s) (nM)", "result": 0.02, "unit": "nM"},
      {"measurement": "EC50", "setting": "[5]; read-out: 2b (t) (nM)", "result": 0.017, "unit": "nM"},
      {"measurement": "EC50", "setting": "[6]; read-out: 4a", "result": "< 1", "unit": "nM"},
      {"measurement": "EC50", "setting": "[6]; read-out: 4a (s) (nM)", "result": 0.072, "unit": "nM"},
      {"measurement": "EC50", "setting": "[6]; read-out: 4a (t) (nM)", "result": 0.016, "unit": "nM"}
    ]}
  ]
}
